# Legend:
# [1] = K34R mutant; cited from earlier work
# [2] = test system: C57BL/6J mice; experiment: In vivo intraperitoneal glucose tolerance test (IPGTT); settings: C57BL/6J male mice, 100 nmol/kg subcutaneous 1 h before glucose 1.5 g/kg i.p., 0-120 min, n = 6
# Protocol: We performed in vivo intraperitoneal glucose tolerance tests (IPGTTs) on seven-week-old male C57BL/6J mice, which we purchased from DBL. The mice were randomly divided into five groups (n = 6). The IPGTTs were performed after glucose (1.5 g/kg dose) had been intraperitoneally administered to C57BL/6J male mice that had been fasted for 3 h. We obtained blood samples from the tail of each mouse at the predetermined time using an Accu-Check Guide (Roche Diabetes Care, Indianapolis, IN, USA).
# [3] = target: human GLP-1 receptor (GLP-1R) overexpressed on HEK-293 cells (human) (UniProt P43220)
# Chain of human GLP-1 receptor (GLP-1R) overexpressed on HEK-293 cells (human) (P43220 24-463): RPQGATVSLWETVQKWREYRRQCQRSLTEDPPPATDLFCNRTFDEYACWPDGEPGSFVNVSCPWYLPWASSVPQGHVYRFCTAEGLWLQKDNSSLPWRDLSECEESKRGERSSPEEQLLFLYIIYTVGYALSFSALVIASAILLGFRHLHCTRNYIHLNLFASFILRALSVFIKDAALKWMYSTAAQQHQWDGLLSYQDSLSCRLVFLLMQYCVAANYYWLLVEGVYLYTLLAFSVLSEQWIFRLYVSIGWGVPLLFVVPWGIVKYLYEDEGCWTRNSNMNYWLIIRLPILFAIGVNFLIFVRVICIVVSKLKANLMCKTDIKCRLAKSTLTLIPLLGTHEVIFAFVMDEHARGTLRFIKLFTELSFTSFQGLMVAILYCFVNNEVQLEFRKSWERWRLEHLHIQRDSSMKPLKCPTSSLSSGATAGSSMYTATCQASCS
molecule,measurement,setting,value
CC[C@H](C)[C@H](NC(=O)[C@H](Cc1ccccc1)NC(=O)[C@H](CCC(=O)O)NC(=O)[C@H](CCCCN)NC(=O)[C@H](C)NC(=O)[C@H](C)NC(=O)[C@H](CCC(N)=O)NC(=O)CNC(=O)[C@H](CCC(=O)O)NC(=O)[C@H](CC(C)C)NC(=O)[C@H](Cc1ccc(O)cc1)NC(=O)[C@H](CO)NC(=O)[C@H](CO)NC(=O)[C@@H](NC(=O)[C@H](CC(=O)O)NC(=O)[C@H](CO)NC(=O)[C@@H](NC(=O)[C@H](Cc1ccccc1)NC(=O)[C@@H](NC(=O)CNC(=O)[C@H](CCC(=O)O)NC(=O)[C@H](C)NC(=O)[C@@H](N)Cc1c[nH]cn1)[C@@H](C)O)[C@@H](C)O)C(C)C)C(=O)N[C@@H](C)C(=O)N[C@@H](Cc1c[nH]c2ccccc12)C(=O)N[C@@H](CC(C)C)C(=O)N[C@H](C(=O)N[C@@H](CCCNC(=N)N)C(=O)NCC(=O)N[C@@H](CCCNC(=N)N)C(=O)NCC(=O)O)C(C)C [GLP1_C],biological activity compared with wild-type GLP-1,[1],comparable biological activity to that of wild-type GLP-1
same,blood glucose profile / blood glucose levels in IPGTT,[2],very similar to that of the negative control group
GLP1_16HSA (GLP-1 variant conjugated to human serum albumin at position 16) (from UniProt P02768 25-609),EC50 of cAMP production in HEK-293 cells overexpressing GLP-1R,[3],0.7 µM

# — article PMC7238188, “Recombinant Peptide Production Platform Coupled with Site-Specific Albumin Conjugation Enables a Convenient Production of Long-Acting Therapeutic Peptide” (Pharmaceutics, 2020)
